In ChEMBL document CHEMBL1201862, “PubChem BioAssay data set” (2004):
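The compound was tested at five concentrations on cells cultured in 96-well plates, with a 48-hour exposure period. GI50 is the concentration that inhibits growth by half.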 Calls of active or inactive are those of the source. No stated cut-off is given here; in the data, active = GI50 up to about 1.1 µM and inactive = higher.

What was measured:
Assay in all cases: growth of human tumour cells (NCI), 48 h
[1] = system: HOP-92
[2] = system: SN12C
[3] = system: SK-MEL-5
[4] = system: A549
[5] = system: SF-295
[6] = system: M19-MEL
[7] = system: KM-20L2
[8] = system: DMS-273
[9] = system: RXF 393
[10] = system: NCI-H460
[11] = system: DLD-1
[12] = system: OVCAR-3
[13] = system: DMS-114
[14] = system: UACC-62
[15] = system: OVCAR-4
[16] = system: T47D
[17] = system: MDA-MB-231
[18] = system: MDA-MB-435
[19] = system: Hs-578T
[20] = system: BT-549

Row | Structure (SMILES) | GI50 [1] | GI50 [2] | GI50 [3] | GI50 [4] | GI50 [5] | GI50 [6] | GI50 [7] | GI50 [8] | GI50 [9] | GI50 [10] | GI50 [11] | GI50 [12] | GI50 [13] | GI50 [14] | GI50 [15] | GI50 [16] | GI50 [17] | GI50 [18] | GI50 [19] | GI50 [20]
1 | Nc1nc(=O)c2c([nH]1)NCC(CNc1ccc(C(=O)N[C@@H](CCC(=O)O)C(=O)O)cc1)N2C=O (stereo not given in full) [LEUCOVORIN CALCIUM] | > 125 µM (inactive) | 14.8 µM (inactive) | > 125 µM (inactive) | > 125 µM (inactive) | > 125 µM (inactive) | > 125 µM (inactive) | > 125 µM (inactive) | > 125 µM (inactive) | > 125 µM (inactive) | > 125 µM (inactive) | > 125 µM (inactive) | > 125 µM (inactive) | > 125 µM (inactive) | > 125 µM (inactive) | > 125 µM (inactive) | – | – | – | – | –
2 | N#Cc1c(N)nc(Nc2cccc3ccccc23)c(C#N)c1C#N | – | 3.42 µM (inactive) | 4.43 µM (inactive) | 5.71 µM (inactive) | 3.4 µM (inactive) | – | – | – | > 10 µM (inactive) | 2.97 µM (inactive) | – | 2.3 µM (inactive) | – | 4.18 µM (inactive) | > 10 µM (inactive) | 8.09 µM (inactive) | 3.73 µM (inactive) | 3.31 µM (inactive) | 2.43 µM (inactive) | –
3 | CC(C)OP(=O)(OC(C)C)/C(=N/Nc1ccc([N+](=O)[O-])cc1)Nc1ccc(N/C(=N\Nc2ccc([N+](=O)[O-])cc2)P(=O)(OC(C)C)OC(C)C)cc1 | > 100 µM (inactive) | > 100 µM (inactive) | 6.98 µM (inactive) | 4.91 µM (inactive) | – | 82.4 µM (inactive) | 14.9 µM (inactive) | 5.58 µM (inactive) | – | 2.31 µM (inactive) | 4.72 µM (inactive) | 70.1 µM (inactive) | 9.51 µM (inactive) | 2.2 µM (inactive) | 35.7 µM (inactive) | – | – | – | – | –
4 | NC(=O)SCC(=O)Nc1ccc2ncccc2c1 | 35.2 µM (inactive) | 56 µM (inactive) | 43.4 µM (inactive) | > 100 µM (inactive) | 53.2 µM (inactive) | – | – | – | – | 85.3 µM (inactive) | – | 35.5 µM (inactive) | – | 46.2 µM (inactive) | > 100 µM (inactive) | – | > 100 µM (inactive) | 48.3 µM (inactive) | 67.3 µM (inactive) | 74.5 µM (inactive)
5 | O=S(=O)(N=S(c1ccccc1)c1ccccc1)c1ccccc1 | > 100 µM (inactive) | > 100 µM (inactive) | – | > 100 µM (inactive) | > 100 µM (inactive) | – | – | – | > 100 µM (inactive) | > 100 µM (inactive) | – | > 100 µM (inactive) | – | – | – | > 100 µM (inactive) | – | > 100 µM (inactive) | – | > 100 µM (inactive)
6 | CC(=O)C1=C(C)NC(=C(C#N)C#N)C(C#N)=C1 | > 100 µM (inactive) | > 100 µM (inactive) | > 100 µM (inactive) | > 100 µM (inactive) | – | – | – | – | > 100 µM (inactive) | > 100 µM (inactive) | – | – | – | > 100 µM (inactive) | 3.81 µM (inactive) | > 100 µM (inactive) | > 100 µM (inactive) | > 100 µM (inactive) | > 100 µM (inactive) | –
7 | Nc1ncnc2c1cnn2Cc1ccc(Cl)cc1 | > 100 µM (inactive) | > 100 µM (inactive) | > 100 µM (inactive) | > 100 µM (inactive) | > 100 µM (inactive) | – | – | – | > 100 µM (inactive) | > 100 µM (inactive) | – | > 100 µM (inactive) | – | – | > 100 µM (inactive) | > 100 µM (inactive) | > 100 µM (inactive) | > 100 µM (inactive) | > 100 µM (inactive) | –
8 | NC(CCCCO)C(=O)O (stereo not given) | > 100 µM (inactive) | – | > 100 µM (inactive) | > 100 µM (inactive) | > 100 µM (inactive) | – | – | – | > 100 µM (inactive) | > 100 µM (inactive) | – | > 100 µM (inactive) | – | > 100 µM (inactive) | > 100 µM (inactive) | > 100 µM (inactive) | > 100 µM (inactive) | > 100 µM (inactive) | > 100 µM (inactive) | > 100 µM (inactive)
9 | CCCCCCCCCCCCCCCCCCOP(=O)([O-])OCC[N+](C)(C)C [OCTADECYLPHOSPHONOCHOLINE] | 0.33 µM (active) | 0.502 µM (active) | 1.42 µM (inactive) | 1.35 µM (inactive) | 0.736 µM (active) | 4.24 µM (inactive) | 3.38 µM (inactive) | 1.74 µM (inactive) | 2.45 µM (inactive) | 0.41 µM (active) | 4.7 µM (inactive) | 0.877 µM (active) | 13.6 µM (inactive) | 4.4 µM (inactive) | – | < 0.0209 µM (active) | 0.0447 µM (active) | – | – | 1.22 µM (inactive)
